Results: ChEMBL document CHEMBL1140499, “Novel heparin/heparan sulfate mimics as inhibitors of HGF/SF-induced MET activation” (2007)
Calls of active or inactive are those of the source. The rule behind the calls is not given here.

Columns and labels:
[1] = species on record: Cricetulus griseus; assay: Inhibition of FGF2-induced FGF receptor activation assessed as ERK activation at 100 ug/mL by Western blot
[2] = system: MDCK; assay: Inhibition of HGF/SF-induced migration of MDCK cells at 100 ug/mL after 4 hrs; format: functional; conditions: Canis lupus familiaris
[3] = species on record: Cricetulus griseus; assay: Inhibition of HGF/SF-induced MET receptor activation assessed as ERK activation at 100 ug/mL by Western blot

| Activity [1] | Activity [3] | SMILES | inhibition at 100 µg/mL [2] |
| --- | --- | --- | --- |
| inactive | Active | O=C(O)c1cc(OC[C@@H](COS(=O)(=O)O)OS(=O)(=O)O)ccc1OCCCCOS(=O)(=O)O | 70% |
| inactive | Active | O=C(O)c1cc(OC[C@@H](COS(=O)(=O)O)OS(=O)(=O)O)ccc1OC[C@H](COS(=O)(=O)O)OS(=O)(=O)O | 57% |
